Experimental data from patent US20240043448A1, “Small Molecule Inhibitors of KRAS G12C Mutant” (Merck Sharp & Dohme LLC, priority 2019, published 2024).
Read-outs that look alike come from different tables or passages of the source.

Experiments:
[1] = molecular target: Biotinylated KRAS G12C protein (Homo sapiens (Human), UniProt P01116, C118S/C51S/C80L/G12C); assay: SOS-catalyzed nucleotide exchange assay (TR-FRET); format: biochemical; conditions: in vitro apparent potency; preincubation time of 60 minutes prior to addition of SOS
Sequence of Biotinylated KRAS G12C protein (P01116 other isoform, or with tags, fused parts or gaps, stated change not applied): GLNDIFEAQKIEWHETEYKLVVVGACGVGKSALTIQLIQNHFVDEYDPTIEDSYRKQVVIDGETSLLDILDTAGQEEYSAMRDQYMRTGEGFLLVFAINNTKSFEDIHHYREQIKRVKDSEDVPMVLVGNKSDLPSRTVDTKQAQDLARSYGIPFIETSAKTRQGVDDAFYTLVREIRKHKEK
In short: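 Biotinylated KRAS G12C preloaded with Bodipy-GDP and Tb-streptavidin, then incubated with compound (10-point, 3-fold series) for 60 min at RT. Exchange started with SOS and GTP for 60 min. TR-FRET 520/495 ratio normalised to DMSO and saturating-inhibitor controls; four-parameter fit.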

phospho-ERK = assay: Cellular phospho-ERK assay; format: cell-based; conditions: NCI-H358 cells, 2 hour incubation, ratio of p-Erk vs total Erk, read-out: IC50 (nM) pERK (Cell)
In short: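 NCI-H358 cells seeded overnight, then exposed to compound dose-response titrations for 2 hours at 37° C. in RPMI. Lysates assayed by AlphaLISA SureFire Ultra multiplex for p-Erk and total Erk; ratio p-Erk/total Erk used as readout, IC50 from 4-parameter logistic fit.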

| Compound | IC50 [1] [nM] | IC50 (phospho-ERK; Homo sapiens, NCI-H358, 2 h) [nM] | IC50 (phospho-ERK) [nM] |
| --- | --- | --- | --- |
| C=CC(=O)N1CCN(c2nc(=O)n3c4nc(c(F)cc24)-c2c(ccc(F)c2F)OCC(F)(F)CCc2ccnc(C(C)C)c2-3)CC1 [Example 65, 12,12,17,18,21-pentafluoro-6-(propan-2-yl)-2-[4-(prop-2-enoyl)piperazin-1-yl]-10,11,12,13-tetrahydro-4H-1,19-(ethanediylidene)pyrido[4,3-f]pyrimido[1,6-h][1,8,10] benzoxadiazacyclotri-decin-4-one] | 2.6 | 15 | – |
| C=CC(=O)N1CCN(c2nc(=O)n3c4nc(c(F)cc24)-c2c(ccc(F)c2F)OCC(F)(F)CCc2ccnc(C(C)C)c2-3)C[C@H]1C [Example 66, 12,12,17,18,21-pentafluoro-2-[(3R)-3-methyl-4-(prop-2-enoyl)piperazin-1-yl]-6-(propan-2-yl)-10,11,12,13-tetrahydro-4H-1,19-(ethanediylidene) pyrido[4,3-f]pyrimido[1,6-h] [1,8,10]benzoxadiazacyclo-tridecin-4-one] | 5.3 | 30 | – |
| [2H]C1([2H])Oc2ccnc(C(C)C)c2-n2c(=O)nc(N3C[C@@H](C)N(C(=O)C=C)C[C@@H]3C)c3cc(F)c(nc32)-c2c(F)ccc(F)c2OC1([2H])[2H] [Example 67, 2-[(2S,5R)-2,5-Dimethyl-4-(prop-2-enoyl)piperazin-1-yl]-14,17,20-trifluoro-6-(propan-2-yl)-11,12-di[(^2H)hydro](11,12-^2H2)-4H-1,18-(ethanediylidene)pyrido [4,3-e]pyrimido[1,6-g][1,4,7,9] benzodioxadiazacyclo-dodecin-4-one] | 12 | 50 | – |
| C=CC(=O)N1C[C@H](C)N(c2nc(=O)n3c4nc(c(F)cc24)-c2cccc4cnn(c24)CCCCc2ccnc(C(C)C)c2-3)C[C@H]1C [Example 68, 2-[(2S,5R)-2,5-dimethyl-4-(prop-2-enoyl)piperazin-1-yl]-22-fluoro-6-(propan-2-yl)-10,11,12,13-tetrahydro-4H-1,20-(ethanediylidene)pyrido [4′,3′:12,13]pyrimido [1′,6′:1,2][1,3,7]triaza-cyclotridecino[5,6,7-hi] indazol-4-one] | 4.5 | 6.3 | – |
| C=CC(=O)N1C[C@H](C)N(c2nc(=O)n3c4nc(c(F)cc24)-c2c(F)cccc2OCCOc2c(Cl)cnc(C(C)C)c2-3)C[C@H]1C [Example 70, 9-chloro-2-[(2S,5R)-2,5-dimethyl-4-(prop-2-enoyl)piperazin-1-yl]-17,20-difluoro-6-(propan-2-yl)-11,12-dihydro-4H-1,18-(ethanediylidene)pyrido[4,3-e]pyrimido[1,6-g][1,4,7,9]benzodioxadiazacyclododecin-4-one] | 1.8 | – | 19 |
| C=CC(=O)N1C[C@H](C)N(c2nc(=O)n3c4nc(c(F)cc24)-c2c(cccc2C(F)(F)F)OCCOc2ccnc(C(C)C)c2-3)C[C@H]1C [Example 73, 2-[(2S,5R)-2,5-dimethyl-4-(prop-2-enoyl)piperazin-1-yl]-20-fluoro-6-(propan-2-yl)-17-(trifluoromethyl)-11,12-dihydro-4H-1,18-(ethanediylidene)pyrido[4,3-e]pyrimido[1,6-g][1,4,7,9]benzodioxadiazacyclododecin-4-one] | 6.5 | – | 13 |
| C=CC(=O)N1C[C@H](C)N(c2nc(=O)n3c4nc(c(Cl)cc24)-c2c(ccc(F)c2F)OCCCc2ncnc(C(C)C)c2-3)C[C@H]1C [Example 74, 20-chloro-2-[(2S,5R)-2,5-dimethyl-4-(prop-2-enoyl)piperazin-1-yl]-16,17-difluoro-6-(propan-2-yl)-11,12-dihydro-4H,10H-1,18-ethenodipyrimido[4,5-e:1′,6′-g][1,7,9]benzoxadiazacyclododecin-4-one] | 0.51 | 3.6 | – |
| C=CC(=O)N1C[C@H](C)N(c2nc(=O)n3c4nc(c(F)cc24)-c2c(F)cccc2OCCCc2ccnc(C(C)C)c2-3)C[C@H]1C [Example 75, 2-[(2S,5R)-2,5-dimethyl-4-(prop-2-enoyl)piperazin-1-yl]-17,20-difluoro-6-(propan-2-yl)-11,12-dihydro-4H,10H-1,18-ethenopyrido[4,3-e]pyrimido[1,6-g][1,7,9]benzoxadiazacyclododecin-4-one] | 1.7 | 8.8 | – |
| C=CC(=O)N1C[C@H](C)N(c2nc(=O)n3c4nc(c(F)cc24)-c2c(Cl)cccc2OCCCc2ccnc(C(C)C)c2-3)C[C@H]1C [Example 76, 17-chloro-2-[(2S,5R)-2,5-dimethyl-4-(prop-2-enoyl)piperazin-1-yl]-20-fluoro-6-(propan-2-yl)-11,12-dihydro-4H,10H-1,18-ethenopyrido[4,3-e]pyrimido[1,6-g][1,7,9]benzoxadiazacyclododecin-4-one] | 2.3 | 3.6 | – |
| C=CC(=O)N1C[C@H](C)N(c2nc(=O)n3c4nc(c(F)cc24)-c2c(F)c(F)cc(F)c2OCCCc2ccnc(C(C)C)c2-3)C[C@H]1C [Example 77, 2-[(2S,5R)-2,5-dimethyl-4-(prop-2-enoyl)piperazin-1-yl]-14,16,17,20-tetrafluoro-6-(propan-2-yl)-11,12-dihydro-4H,10H-1,18-ethenopyrido[4,3-e]pyrimido[1,6-g][1,7,9]benzoxadiazacyclododecin-4-one] | 2.4 | 45 | – |
| C=CC(=O)N1C[C@H](C)N(c2nc(=O)n3c4nc(c(F)cc24)-c2c(ccc(F)c2F)OCCCc2ccnc(C(C)C)c2-3)C[C@H]1C [Example 78, 2-[(2S,5R)-2,5-dimethyl-4-(prop-2-enoyl)piperazin-1-yl]-16,17,20-trifluoro-6-(propan-2-yl)-11,12-dihydro-4H,10H-1,18-ethenopyrido[4,3-e]pyrimido[1,6-g][1,7,9]benzoxadiazacyclododecin-4-one] | 2.4 | 18 | – |
| C=CC(=O)N1CCN(c2nc(=O)n3c4nc(c(F)cc24)-c2c(F)ccc(F)c2OCCCCc2ccnc(C(C)C)c2-3)[C@@H](C)C1 [Example 79, 15,18,21-trifluoro-2-[(2S)-2-methyl-4-(prop-2-enoyl)piperazin-1-yl]-6-(propan-2-yl)-10,11,12,13-tetrahydro-4H-1,19-(ethanediylidene)pyrido[4,3-f]pyrimido[1,6-h][1,8,10]benzoxadiazacyclotridecin-4-one] | 2.6 | 7 | – |
| C=CC(=O)N1C[C@H](C)N(c2nc(=O)n3c4nc(c(F)cc24)-c2c(cc(F)c(F)c2F)OCCCc2ccnc(C(C)C)c2-3)C[C@H]1C [Example 80, 2-[(2S,5R)-2,5-dimethyl-4-(prop-2-enoyl)piperazin-1-yl]-15,16,17,20-tetrafluoro-6-(propan-2-yl)-11,12-dihydro-4H,10H-1,18-ethenopyrido[4,3-d]pyrimido[1,6-g][1,7,9]benzoxadiazacyclododecin-4-one] | 2.6 | 54 | – |
| C=CC(=O)N1C[C@H](C)N(c2nc(=O)n3c4nc(c(Cl)cc24)-c2cc(F)cc(F)c2OCCCc2ccnc(C(C)C)c2-3)C[C@H]1C [Example 82, 20-chloro-2-[(2S,5R)-2,5-dimethyl-4-(prop-2-enoyl)piperazin-1-yl]-14,16-difluoro-6-(propan-2-yl)-11,12-dihydro-4H,10H-1,18-ethenopyrido[4,3-e]pyrimido[1,6-g][1,7,9]benzoxadiazacyclododecin-4-one] | 5.9 | 36 | – |
| C=CC(=O)N1C[C@H](C)N(c2nc(=O)n3c4nc(c(F)cc24)-c2c(Cl)cccc2OCCOc2ccnc(C(C)C)c2-3)C[C@H]1C [Example 83, 17-chloro-2-[(2S,5R)-2,5-dimethyl-4-(prop-2-enoyl)piperazin-1-yl]-20-fluoro-6-(propan-2-yl)-11,12-dihydro-4H-1,18-(ethanediylidene)pyrido[4,3-e]pyrimido[1,6-g][1,4,7,9]benzodioxadiazacyclododecin-4-one] | 11 | 8.9 | – |
| C=CC(=O)N1C[C@H](C)N(c2nc(=O)n3c4nc(c(F)cc24)-c2cc(F)c(F)cc2OCCOc2ccnc(C(C)C)c2-3)C[C@H]1C [Example 84, 2-[(2S,5R)-2,5-dimethyl-4-(prop-2-enoyl)piperazin-1-yl]-15,16,20-trifluoro-6-(propan-2-yl)-11,12-dihydro-4H-1,18-(ethanediylidene)pyrido[4,3-e]pyrimido[1,6-g][1,4,7,9]benzodioxadiazacyclododecin-4-one] | 38 | 119 | – |
| C=C(F)C(=O)N1CCN(c2nc(=O)n3c4nc(c(F)cc24)-c2c(F)cccc2OCCCCc2ccnc(C(C)C)c2-3)[C@@H](C)C1 [Example 85, 18,21-difluoro-2-[(2S)-4-(2-fluoroprop-2-enoyl)-2-methylpiperazin-1-yl]-6-(propan-2-yl)-10,11,12,13-tetrahydro-4H-1,19-ethenopyrido[4,3-f]pyrimido[1,6-h][1,8,10]benzoxadiazacyclotridecin-4-one] | 47 | 198 | – |
| C=CC(=O)N1C[C@H](C)N(c2nc(=O)n3c4nc(c(F)cc24)-c2cc(C(F)(F)F)ccc2OCCOc2ccnc(C(C)C)c2-3)C[C@H]1C [Example 86, 2-[(2S,5R)-2,5-dimethyl-4-(prop-2-enoyl)piperazin-1-yl]-20-fluoro-6-(propan-2-yl)-16-(trifluoromethyl)-11,12-dihydro-4H-1,18-(ethanediylidene)pyrido[4,3-e]pyrimido[1,6-g][1,4,7,9] benzodioxadiazacyclododecin-4-one] | 64 | 389 | – |
